Measured values as given in paper PMC12085588 (Scientific Reports, 2025).
Where two headings read alike, the source gives them in different places.

Key:
[1] = test system: IAV H1N1 strain A/Puerto Rico/8/1934; format: cell-based, influenza A virus
[2] = test system: IAV H1N1 strain A/Puerto Rico/8/1934; test: microbe, parasite or virus in culture; format: cell-based, influenza A virus
A549 cells = test: Cytotoxicity assay; format: cell-based, human
Cytotoxicity assay = format: cell-based, human; conditions: human, A549 cells
[3] = test system: IAV H1N1 strain A/Puerto Rico/8/1934; test: microbe, parasite or virus in culture; format: cell-based, influenza A virus; remark: listed apart in the source
[4] = test system: host antiviral genes (IFITM-1, ISG15, ISG20, Mx-A, OAS-1, RSAD2, SHFL) in A549 cells; format: cell-based, human
[5] = test system: IAV H1N1 strain A/Puerto Rico/8/1934; test: microbe, parasite or virus in culture; format: cell-based, influenza A virus; remark: listed apart in the source
[6] = test system: dengue virus serotype 2 (DENV-2); conditions: cells treated 2 h before viral infection (-2 h); ref 15 (Oo et al.); cited from earlier work
[7] = test system: IAV H1N1 strain A/Puerto Rico/8/1934; test: microbe, parasite or virus in culture; format: cell-based, influenza A virus; remark: listed apart in the source
[8] = test system: IAV H1N1 strain A/Puerto Rico/8/1934; test: microbe, parasite or virus in culture; format: cell-based, influenza A virus; conditions: for IC50: Influenza A virus, H1N1, A549, 48 h
[9] = after 48 h of incubation at concentrations of up to 1000 μM

| SMILES | percentage of viral RNA copy numbers vs virus control [1] | viral RNA reduction, post-entry assay ([2]; 25 μM) | IC50 ([2]; Influenza A virus, H1N1, A549, read-out: IC50 of diosmin, post-entry assay) | cytotoxicity on A549 cells (A549 cells; after 48 h of incubation at concentrations of up to 5000 μM) | CC50 at 3 days (Cytotoxicity assay) | reduction of viral RNA, entry assay ([3]; 25 μM) | IC50 ([3]; Influenza A virus, H1N1, A549, read-out: IC50 of diosmin, entry assay) | fold change of ISG15 expression (relative quantification) [4] | fold change of Mx-A expression (relative quantification) [4] | fold change of OAS-1 expression (relative quantification) [4] | fold change of SHFL expression (relative quantification) [4] | viral RNA reduction, virucidal assay ([5]; 25 μM) | IC50 ([5]; Influenza A virus, H1N1, A549, read-out: IC50 of diosmin, virucidal assay) | suppression of DENV-2 RNA [6] | viral RNA reduction, attachment assay ([7]; 25 μM) | IC50 ([7]; Influenza A virus, H1N1, A549, read-out: IC50 of diosmin, attachment assay) | viral RNA levels [8] | IC50 [8] | cytotoxicity on A549 cells (A549 cells; [9]) |
| --- | --- | --- | --- | --- | --- | --- | --- | --- | --- | --- | --- | --- | --- | --- | --- | --- | --- | --- | --- |
| COc1ccc(-c2cc(=O)c3c(O)cc(O[C@@H]4O[C@H](CO[C@@H]5O[C@@H](C)[C@H](O)[C@@H](O)[C@H]5O)[C@@H](O)[C@H](O)[C@H]4O)cc3o2)cc1O [Diosmin, diosmetin 7-O-rutinoside] | significant reduction | exceeding 40% | 12.2 ± 1.55 µM | no significant cytotoxicity | 11300 µM | under 40% | 39.2 ± 0.63 µM | 6.774 | 2.163 | 2.035 | 4.148 | exceeding 40% | 41.3 ± 4.56 µM | over 50% | exceeding 40% | 13.3 ± 2.37 µM | less than 20% | 2.91 ± 3.22 µM |  |
| O=c1cc(-c2ccc(O)c(O)c2)oc2c([C@@H]3O[C@H](CO)[C@@H](O)[C@H](O)[C@H]3O)c(O)cc(O)c12 [Orientin] |  |  |  |  | 1043 ± 3.41 µM |  |  |  |  |  |  |  |  |  |  |  |  | 8.98 ± 2.03 µM | no significant cytotoxicity |
| O=c1c(O)c(-c2ccc(O)c(O)c2)oc2cc(O)ccc12 [Fisetin] |  |  |  |  | 1190 ± 3.52 µM |  |  |  |  |  |  |  |  |  |  |  |  | 143 ± 6.19 µM | no significant cytotoxicity |
